Data set [1] deals with patients afflicted with a progressive form of multiple sclerosis (PPMS, SPMS, PRMS). Put plainly: Phase III clinical trial of oral laquinimod in progressive forms of multiple sclerosis (Example 1). Format: in vivo, human. The conditions noted are these: daily oral 0.6 mg, 0.9 mg, 1.2 mg and 1.8 mg. The source says: 3-5 Years (2-4 years recruitment duration). Progressive Forms of Multiple Sclerosis, including Primary Progressive Multiple sclerosis (PPMS) and Secondary Progressive Multiple Sclerosis (SPMS). […] Matching placebo for laquinimod arm: matching placebo for laquinimod administered once daily. Approximately 140-240 sites and approximately 1300-2300 subjects. Inclusion Criteria • 1. Subjects must be 25-65 years old. • 2. Subjects must have a confirmed and documented diagnosis of Primary Progressive (according to McDonald), Progressive-Relapsing or Secondary Progressive (clinical definition, without relapses in the previous year) Multiple Sclerosis disease course. • 3. Subjects must be ambulatory with converted Kurtzke EDSS score of 3.0-6.5. • 4. Subjects must have a Pyramidal Functional Systems (FS) score of ≧2. • 5. Subjects must have a threshold Timed 25-Foot Walk ([…]) score. Exclusion Criteria • 1. Subjects with RRMS. • 2. Subjects with clinically significant or unstable medical or surgical condition that would preclude safe and complete study participation, as determined by medical history, physical examination, ECG, laboratory tests or chest X-ray. • 3. […] Confirmed disability progression at 3 and 6 months. This study assesses the efficacy of various daily doses of laquinimod as compared to placebo in multiple sclerosis subjects.

Data set [2] relates to patients afflicted with PPMS. As to the kind of experiment: Phase II clinical trial of laquinimod in Primary Progressive Multiple Sclerosis subjects (Example 2). Format: in vivo, human. The conditions noted are these: daily oral 0.6 mg, 1.0 mg and 1.5 mg. How it is done:
Study Duration • Screening phase: Up to 1 month • Treatment Phase: At least 15 months
Subjects with Primary Progressive Multiple Sclerosis (approximately 500 subjects in approximately 120 centers, with about 125 subjects per study arm).
Investigational Product Route and Dosage Form • 1. […] Placebo arm: Three capsules containing placebo (0.5/0.6 mg matching) to be administered orally once daily.
Eligible subjects are randomized in a 1:1:1:1 ratio into one of the following treatment arms: • 1. […] Matching placebo
Subjects that stopped treatment with the study drug before the completion of Month 12 visit are considered Early Treatment Discontinuation (ETD) subjects. ETD subjects continue follow-up according to scheduled visits (until Month 12).
Subjects have the following study visits: Screening visit (−1 Month), Baseline visit (Month 0), and Months 1, 2, 3, 6, 9, 12, and every three months until study termination.
The following assessments are performed at the specified time points: • 1. Vital signs are measured at each study visit. • 2. A physical examination is performed at months −1, 0, 1, 3, 6 and every 6 months thereafter, ETD (if applicable), and until study completion. • 3. The following safety clinical laboratory tests are performed: • a. Complete blood count (CBC) with differential at all scheduled visits. • b. Serum chemistry (including electrolytes, liver enzymes, urea, creatinine, glucose, total protein, albumin, direct and total bilirubin, Creatinephosphokinase (CPK), serum conventional C-reactive protein (CRP), fibrinogen and pancreatic amylase)—at all scheduled visits. Calculated Glomerular Filtration Rate (GFR) at screening and prior to each MRI scan. • c. Lipid profile (total cholesterol, HDL, LDL, triglycerides)—at baseline (month 0) and every 12 months until completion/ETD. • d. Serum TSH, T3 and Free T4 at baseline (month 0), month 6 and every 12 months until completion/ETD. • e. Urinalysis at the screening visit. • f. Serum human choriogonadotropin beta (β-hCG) in women of child-bearing potential is performed at each scheduled study visit. • g. Urine β-hCG test is performed in women of child-bearing potential at baseline (month 0) and at each scheduled study visit thereafter. • h. Starting after visit Month 3 a β-hCG test is performed in women of child-bearing potential every 28 (±2) days. In case of suspected pregnancy the study drug is discontinued. • 4. Additional blood for analysis of serology for Hepatitis B and C viruses at baseline visit • 5. […] ECG is performed at months −1 (screening), 0 (baseline, three recordings 10 min apart, before first dose), 1, 2, 3, 6, 12 and every 12 months until completion/ETD. • 8. Chest X-ray is performed at month −1, (if not performed within 6 months prior to the screening visit). • 9. Adverse Events (AEs) are monitored throughout the study. • 10. Concomitant Medications are monitored throughout the study. • 11. All subjects—conventional MRI scans with gadolinium at Months 0 (14 to 7 days before Baseline), and 12. In case of ETD, or completion, an additional MRI is performed, provided no study MRI was done within the previous 3 months. • 12. In case of steroid treatment, study MRI is performed before such treatment or delayed to allow a minimum of 14 days but not more than 28 days from the completion of the steroid course. • 13. All subjects—MRI including 3D T1-w acquisitions of the brain and cervical cord, to measure whole brain volume, cord atrophy, thalamic atrophy, cortical atrophy and white matter (WM) atrophy at Months 0 (Baseline), 12 or ETD (if applicable). • 14. Neurological evaluations, including Expanded Disability Status Scale (EDSS), Timed 25-Foot Walk (T25FW)/9-Hole Peg test (9HPG), Ambulation Index (AI), Functional systems (FS), are performed at months −1, 0, and every 3 months thereafter, ETD visit (if applicable) and until completion visit. • 15. […]

Data set [3] concerns patients having Relapsing-Remitting Multiple Sclerosis (RRMS). As to conditions: cited from earlier work.
Data set [4] relates to genes related to antigen presentation and corresponding inflammatory pathways. The conditions noted are these: mainly via the NFkB pathway; cited from earlier work.
For data set [5] the following is noted: in vivo; cited from earlier work.

As for `CCN(C(=O)c1c(O)c2c(Cl)cccc2n(C)c1=O)c1ccccc1` [laquinimod], the “accumulation of physical disability” value in data set [1] (PPMS, vs placebo control group) is “reduces the accumulation of physical disability”; in data set [1] (PPMS, vs the patient at baseline), “reduces the accumulation of physical disability”; in data set [1] (PRMS, vs placebo control group) it was “reduces the accumulation of physical disability”; in data set [1] (PRMS, vs the patient at baseline), “reduces the accumulation of physical disability”; in data set [1] (SPMS, vs placebo control group), “reduces the accumulation of physical disability”; in data set [1] (SPMS, vs the patient at baseline), “reduces the accumulation of physical disability”. The “accumulation of physical disability” value in data set [1] (progressive form of multiple sclerosis, vs placebo control group) is “reduces the accumulation of physical disability”; in data set [1] (progressive form of multiple sclerosis, vs the patient at baseline), “reduces the accumulation of physical disability”; in data set [2] (vs placebo control group) it was “reduces the accumulation of physical disability”; in data set [2] (vs the patient at baseline) it was “reduces the accumulation of physical disability”. The “brain atrophy (percentage change in brain volume from Baseline to month 12)” value in data set [2] (vs placebo control group) and in data set [2] (vs the patient at baseline) was “reduces brain atrophy” in each case. For the same compound, the cognitive function entry in data set [2] (vs placebo control group) and in data set [2] (vs the patient at baseline) was “improves cognitive function” in each case. Further, the “cumulative number of new T2 lesions” value in data set [2] (vs placebo control group) and in data set [2] (vs the patient at baseline) was “reduces the cumulative number of new T2 lesions” throughout. For the same compound, the “EDSS progression of disability” value in data set [3] (RRMS patients) is “consistently reduced EDSS progression of disability”. In data set [3] (RRMS patients), the brain atrophy entry is on record as “reduced brain atrophy”. Moreover, the “non-conventional MRI metrics” value in data set [3] (RRMS patients) was “increased non-conventional MRI metrics suggestive of preservation of tissue architecture”. The “safety and tolerability profile” value in data set [3] (two phase III trials, relapsing-remitting multiple sclerosis patients) was “favorable safety and tolerability profile”. Besides, the “suppression of genes related to antigen presentation” value in data set [4] was “induced suppression of genes related to antigen presentation and corresponding inflammatory pathways”. Also, the oral bioavailability result in data set [5] is “high”.

(Values after US20180064702A1 (Teva Pharmaceutical Industries, Ltd., priority 2013, published 2018).)
